Test results taken from patent US10757943B2, “Thidiazuron mixtures and uses thereof” (Valent BioSciences LLC, priority 2017, dated 2020).

Test system: Concord grape vines
Assay: Bud break and shoot growth of potted dormant Concord grape vines in the greenhouse (Example 1)
Format: in vivo
Conditions: for % bud break (vines with at least one bud break): hydrogen cyanamide 10,000 ppm, 17-0-0 197,100 ppm, 15-0-0 239,060 ppm, ACC 1,000 ppm
Description: An aqueous 50% hydrogen cyanamide solution (Sigma-Aldrich, St. Louis, Mo. USA) was used as the source of hydrogen cyanamide. The commercial product, Dormex® contains 50% hydrogen cyanamide (w/v) in water.
Erger® was used as the source of 15-0-0 fertilizer. (Erger is a registered trademark of Valagro S.P.A., Italy and is available from Helena Chemical Company, Collierville, Tenn., USA). Erger® contains 15% total nitrogen as 3.1% ammoniacal nitrogen, 5.8% nitrate nitrogen and 6.1% urea nitrogen and 3.3% calcium derived from ammonium nitrate, calcium nitrate and urea. As used herein, the term “15-0-0 fertilizer” refers to the Erger® formulation above and all formulations described in International PCT application publication WO/2001/037653A2 by Valagro S.P.A., Italy, which is incorporated, herein, in its entirety.
CAN-17 was used as the source of 17-0-0 fertilizer. CAN-17 contains 17% total nitrogen as 4.6% ammonium nitrogen and […] nitrate nitrogen and 1.3% urea nitrogen and 8.8% calcium derived from ammonium nitrate and calcium nitrate. CAN-17 is available from J.R. Simplot Company (Boise, Id., USA).
To assess the ability of mixtures of the invention to promote and synchronize bud break these mixtures were applied to Concord grape vines and examined for bud break (initiation of growth) and subsequent shoot development. Specifically, 1 year old dormant bare rooted Concord grape vines were planted in pots containing Pro-Mix® BX potting soil (Pro-Mix is a registered trademark of and available from Premier Horticulture Ltd.) and pruned to 5 nodes on a single shoot. Aqueous solutions of thidiazuron, hydrogen cyanamide, 15-0-0 fertilizer, 17-0-0 fertilizer and 1-aminocyclopropane-1-carboxylic acid (“ACC”), and mixtures thereof were each applied individually or sequentially or co-applied to the first-year wood of separate Concord grape vines. Plants were grown in the greenhouse for 49 days and evaluated for percent of vines showing bud break, or relief from dormancy, periodically between 7 days and the conclusion of the experiment. […] At 49 days after treatment (DAT), the plants were sacrificed and measured for total number of flower clusters, total new shoot length, longest new shoot, combined new shoot fresh weight and combined new shoot dry weight. New shoot growth is the growth arising from the dormant buds not including the woody growth that was planted and gave rise to the new growth.
Synergy is calculated by the Abbott method: %Cexp=A+B−(AB/100), where % Cexp is the expected efficacy and in which A and B are the speed of bud break or shoot length or shoot weight given by the single active ingredients. If the ratio between the experimentally observed efficacy of the mixture Cobs and the expected efficacy of the mixture is greater than 1, synergistic interactions are present in the mixture” (Gisi, Synergistic Interaction of Fungicides in Mixtures, The American Phytopathological Society, 86:11, 1273-1279,1996).

[1] = 49 days post treatment, thidiazuron ppm as in label, other concentrations as in Table 1

## NC1(C(=O)O)CC1 [ACC, 1-aminocyclopropane-1-carboxylic acid]
7 DAT, thidiazuron 300 ppm unless label states other
  % bud break (vines with at least one bud break): 0%
10 DAT, thidiazuron 300 ppm unless label states other
  % bud break (vines with at least one bud break): 11.1%
13 DAT, thidiazuron 300 ppm unless label states other
  % bud break (vines with at least one bud break): 11.1%
15 DAT, thidiazuron 300 ppm unless label states other
  % bud break (vines with at least one bud break): 11.1%
17 DAT, thidiazuron 300 ppm unless label states other
  % bud break (vines with at least one bud break): 11.1%
20 DAT, thidiazuron 300 ppm unless label states other
  % bud break (vines with at least one bud break): 11.1%
22 DAT, thidiazuron 300 ppm unless label states other
  % bud break (vines with at least one bud break): 22.2%
24 DAT, thidiazuron 300 ppm unless label states other
  % bud break (vines with at least one bud break): 22.2%
27 DAT, thidiazuron 300 ppm unless label states other
  % bud break (vines with at least one bud break): 22.2%
29 DAT, thidiazuron 300 ppm unless label states other
  % bud break (vines with at least one bud break): 33.3%
31 DAT, thidiazuron 300 ppm unless label states other
  % bud break (vines with at least one bud break): 33.3%
34 DAT, thidiazuron 300 ppm unless label states other
  % bud break (vines with at least one bud break): 55.6%
36 DAT, thidiazuron 300 ppm unless label states other
  % bud break (vines with at least one bud break): 66.7%
38 DAT, thidiazuron 300 ppm unless label states other
  % bud break (vines with at least one bud break): 77.8%
41 DAT, thidiazuron 300 ppm unless label states other
  % bud break (vines with at least one bud break): 77.8%
43 DAT, thidiazuron 300 ppm unless label states other
  % bud break (vines with at least one bud break): 77.8%
49 DAT, thidiazuron 300 ppm unless label states other
  % bud break (vines with at least one bud break): 77.8%
[1]
  Combined Shoot Dry Weight: 1.2 g
  Combined Shoot Fresh Weight: 7.1 g
  Longest Shoot Length: 27.9 cm
  Total # of Flower Clusters: 0.1
  Total Shoot Length: 28.9 cm
Combined shoot dry weight at 49 DAT normalised by days from 25% bud break to harvest
  Dry Weight (g)/25% Bud Break to Harvest (d): 0.06 g/day
Combined shoot dry weight at 49 DAT normalised by days from 50% bud break to harvest
  Dry Weight (g)/50% Bud Break to Harvest (d): 0.08 g/day
Combined shoot fresh weight at 49 DAT normalised by days from 50% bud break to harvest
  Fresh Weight (g)/50% Bud Break to Harvest (d): 0.47 g/day
Harvest at day 49, thidiazuron 300 ppm unless label states other, other concentrations as in Table 1
  50% Bud Break to Harvest: 15 days
Synchrony of bud break, thidiazuron 300 ppm unless label states other, other concentrations as in Table 1
  Initial to 50% Bud Break: 25 days
Time to 25% bud break, thidiazuron 300 ppm unless label states other, other concentrations as in Table 1
  25% Bud Break (DAT): 28 DAT
Time to 50% bud break, thidiazuron 300 ppm unless label states other, other concentrations as in Table 1
  50% Bud Break (DAT): 34 DAT
